Data published in PubChem BioAssay AID2060507 (Molecular Pharmacology Branch, DTP, NCI, 2025).

Tested on: 519858-162-T-J1-PDC complex spheroid viability
Assay: Anticancer human tumor 519858-162-T-J1-PDC patient-derived colon adenocarcinoma cell line growth inhibition [GQUAD]
Conditions: for IC50: curve of first compound; for viability, T/C: stronger effect = lower value
In short: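 Multi-cell-type spheroids of tumor cells with HUVEC and mesenchymal stem cells, treated with drug combinations. Concentrations descend in half-log steps from near clinical Cmax, or from 10 microM where Cmax is unknown; viability read-out.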

[1] = second compound 0.0316 µM, first compound 0.0316 µM
[2] = second compound 0.0316 µM, first compound 0.1 µM
[3] = second compound 0.0316 µM, first compound 0.316 µM
[4] = second compound 0.0316 µM, first compound 1 µM
[5] = second compound 0.0316 µM, first compound 3.16 µM
[6] = second compound 0.0316 µM, first compound 10 µM
[7] = second compound 0.1 µM, first compound 0.0316 µM
[8] = second compound 0.1 µM, first compound 0.1 µM
[9] = second compound 0.1 µM, first compound 0.316 µM
[10] = second compound 0.1 µM, first compound 1 µM
[11] = second compound 0.1 µM, first compound 3.16 µM
[12] = second compound 0.1 µM, first compound 10 µM
[13] = second compound 0.316 µM, first compound 0.0316 µM
[14] = second compound 0.316 µM, first compound 0.1 µM
[15] = second compound 0.316 µM, first compound 0.316 µM
[16] = second compound 0.316 µM, first compound 1 µM
[17] = second compound 0.316 µM, first compound 3.16 µM
[18] = second compound 0.316 µM, first compound 10 µM
[19] = second compound 1 µM, first compound 0.0316 µM
[20] = second compound 1 µM, first compound 0.1 µM
[21] = second compound 1 µM, first compound 0.316 µM
[22] = second compound 1 µM, first compound 1 µM
[23] = second compound 1 µM, first compound 3.16 µM
[24] = second compound 1 µM, first compound 10 µM
[25] = second compound 3.16 µM, first compound 0.0316 µM
[26] = second compound 3.16 µM, first compound 0.1 µM
[27] = second compound 3.16 µM, first compound 0.316 µM
[28] = second compound 3.16 µM, first compound 1 µM
[29] = second compound 3.16 µM, first compound 3.16 µM
[30] = second compound 3.16 µM, first compound 10 µM
[31] = second compound 10 µM, first compound 0.0316 µM
[32] = second compound 10 µM, first compound 0.1 µM
[33] = second compound 10 µM, first compound 0.316 µM
[34] = second compound 10 µM, first compound 1 µM
[35] = second compound 10 µM, first compound 3.16 µM
[36] = second compound 10 µM, first compound 10 µM
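Further: spheroids exposed to compounds for 7 days.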
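Wherever viability, T/C is given: 100% = DMSO vehicle control viability.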

In the case of CC(C)n1c(=O)n(C)c2cnc3cc(F)c(-c4ccc(OCCCN5CCCCC5)nc4)cc3c21 + Cc1cnc(CNC(=O)c2c(=O)c3ccc(N4CCCN(C)CC4)nc3n3c2sc2ccccc23)cn1, the IC50 (second compound 0.0316 µM) is reported as > 10 µM, the IC50 (second compound 0.1 µM) is reported as > 10 µM and the IC50 (second compound 0.316 µM) is reported as 10 µM. For the same compound, the IC50 (second compound 1 µM) was < 0.0316 µM, the IC50 (second compound 3.16 µM) was < 0.0316 µM and the IC50 (second compound 10 µM) was < 0.0316 µM. The viability, T/C [1] was 55.4%, the viability, T/C [2] was 61.4% and the viability, T/C [3] was 73.1%. The viability, T/C [4] was 53.7%, the viability, T/C [5] was 70.2% and the viability, T/C [6] was 66.4%. The viability, T/C [7] was 66.8%, the viability, T/C [8] was 47.8% and the viability, T/C [9] was 64.3%. It also gave a viability, T/C [10] of 60.6%, a viability, T/C [11] of 56.3% and a viability, T/C [12] of 54.6%. The viability, T/C [13] was 66.7%, the viability, T/C [14] was 68.9% and the viability, T/C [15] was 52.3%. For the same compound, the viability, T/C [16] was 48.5%, the viability, T/C [17] was 49.8% and the viability, T/C [18] was 61%. For the same compound, the viability, T/C [19] was 44.2%, the viability, T/C [20] was 45.9% and the viability, T/C [21] was 44.2%. The viability, T/C [22] was 46.7%, the viability, T/C [23] was 44.1% and the viability, T/C [24] was 43%. The viability, T/C [25] was 35.6%, the viability, T/C [26] was 25.4% and the viability, T/C [27] was 54.8%. For the same compound, the viability, T/C [28] was 44.1%, the viability, T/C [29] was 60.2% and the viability, T/C [30] was 51.5%. It also gave a viability, T/C [31] of 37.1%, a viability, T/C [32] of 43.6% and a viability, T/C [33] of 46.7%. The viability, T/C [34] was 52.5%, the viability, T/C [35] was 59.7% and the viability, T/C [36] was 68.8%.
Work on CC1COCCN1c1cc(-c2ccnn2C)c2ccnc(-c3ccn[nH]3)c2n1 (stereo unspecified) + Cc1cnc(CNC(=O)c2c(=O)c3ccc(N4CCCN(C)CC4)nc3n3c2sc2ccccc23)cn1 yielded an IC50 (second compound 0.0316 µM) of 1.54 µM, an IC50 (second compound 0.1 µM) of 1.72 µM and an IC50 (second compound 0.316 µM) of 0.173 µM. The IC50 (second compound 1 µM) was 0.232 µM, the IC50 (second compound 3.16 µM) was < 0.0316 µM and the IC50 (second compound 10 µM) was < 0.0316 µM. It also gave a viability, T/C [1] of 98%, a viability, T/C [2] of 58.7% and a viability, T/C [3] of 77.4%. For the same compound, the viability, T/C [4] was 60.4%, the viability, T/C [5] was 38.9% and the viability, T/C [6] was 24.4%. For the same compound, the viability, T/C [7] was 58.7%, the viability, T/C [8] was 82.7% and the viability, T/C [9] was 95.9%. For the same compound, the viability, T/C [10] was 67.7%, the viability, T/C [11] was 29.1% and the viability, T/C [12] was 30.9%. For the same compound, the viability, T/C [13] was 112%, the viability, T/C [14] was 52.6% and the viability, T/C [15] was 49.8%. The viability, T/C [16] was 44.2%, the viability, T/C [17] was 28.3% and the viability, T/C [18] was 36.6%. For the same compound, the viability, T/C [19] was 57.7%, the viability, T/C [20] was 62.4% and the viability, T/C [21] was 43.1%. It also gave a viability, T/C [22] of 38.1%, a viability, T/C [23] of 28.2% and a viability, T/C [24] of 26.2%. For the same compound, the viability, T/C [25] was 44.2%, the viability, T/C [26] was 33% and the viability, T/C [27] was 37.4%. The viability, T/C [28] was 37.9%, the viability, T/C [29] was 42.9% and the viability, T/C [30] was 29.8%. For the same compound, the viability, T/C [31] was 45.6%, the viability, T/C [32] was 41.2% and the viability, T/C [33] was 26.7%. For the same compound, the viability, T/C [34] was 29.1%, the viability, T/C [35] was 28.8% and the viability, T/C [36] was 32.5%.
Compound CC1COCCN1c1cc(C2(O)CC3CCC(C2)O3)c2cnn(-c3ccn[nH]3)c2n1 (stereo unspecified) + Cc1cnc(CNC(=O)c2c(=O)c3ccc(N4CCCN(C)CC4)nc3n3c2sc2ccccc23)cn1 has an IC50 (second compound 0.0316 µM) of 6.31 µM, an IC50 (second compound 0.1 µM) of 3.16 µM and an IC50 (second compound 0.316 µM) of 3.2 µM. The IC50 (second compound 1 µM) was 0.235 µM, the IC50 (second compound 3.16 µM) was < 0.0316 µM and the IC50 (second compound 10 µM) was < 0.0316 µM. It also gave a viability, T/C [1] of 64.5%, a viability, T/C [2] of 77.8% and a viability, T/C [3] of 92.2%. The viability, T/C [4] was 77.6%, the viability, T/C [5] was 82% and the viability, T/C [6] was 30.6%. It also gave a viability, T/C [7] of 106%, a viability, T/C [8] of 85.8% and a viability, T/C [9] of 96.3%. For the same compound, the viability, T/C [10] was 44.8%, the viability, T/C [11] was 61.3% and the viability, T/C [12] was 57.7%. It also gave a viability, T/C [13] of 65.6%, a viability, T/C [14] of 60% and a viability, T/C [15] of 51.7%. For the same compound, the viability, T/C [16] was 62.7%, the viability, T/C [17] was 49.2% and the viability, T/C [18] was 29.9%. For the same compound, the viability, T/C [19] was 59.3%, the viability, T/C [20] was 60.8% and the viability, T/C [21] was 41.6%. The viability, T/C [22] was 43.4%, the viability, T/C [23] was 50.5% and the viability, T/C [24] was 39.6%. The viability, T/C [25] was 45.7%, the viability, T/C [26] was 38.9% and the viability, T/C [27] was 44.9%. The viability, T/C [28] was 42.4%, the viability, T/C [29] was 26.8% and the viability, T/C [30] was 23.8%. The viability, T/C [31] was 37.7%, the viability, T/C [32] was 44% and the viability, T/C [33] was 37.7%. The viability, T/C [34] was 39.2%, the viability, T/C [35] was 34.1% and the viability, T/C [36] was 23.7%.
